The record followed here is ChEMBL document CHEMBL3039007, “Structure-based identification of OATP1B1/3 inhibitors” (Mol Pharmacol, 2013).

One may read the residual activity as the signal under treatment as a percentage of the control signal.

Data set [1] deals with T1, Solute carrier organic anion transporter family member 1B3 (Homo sapiens, UniProt Q9NPD5).
T1 sequence (Q9NPD5 whole entry): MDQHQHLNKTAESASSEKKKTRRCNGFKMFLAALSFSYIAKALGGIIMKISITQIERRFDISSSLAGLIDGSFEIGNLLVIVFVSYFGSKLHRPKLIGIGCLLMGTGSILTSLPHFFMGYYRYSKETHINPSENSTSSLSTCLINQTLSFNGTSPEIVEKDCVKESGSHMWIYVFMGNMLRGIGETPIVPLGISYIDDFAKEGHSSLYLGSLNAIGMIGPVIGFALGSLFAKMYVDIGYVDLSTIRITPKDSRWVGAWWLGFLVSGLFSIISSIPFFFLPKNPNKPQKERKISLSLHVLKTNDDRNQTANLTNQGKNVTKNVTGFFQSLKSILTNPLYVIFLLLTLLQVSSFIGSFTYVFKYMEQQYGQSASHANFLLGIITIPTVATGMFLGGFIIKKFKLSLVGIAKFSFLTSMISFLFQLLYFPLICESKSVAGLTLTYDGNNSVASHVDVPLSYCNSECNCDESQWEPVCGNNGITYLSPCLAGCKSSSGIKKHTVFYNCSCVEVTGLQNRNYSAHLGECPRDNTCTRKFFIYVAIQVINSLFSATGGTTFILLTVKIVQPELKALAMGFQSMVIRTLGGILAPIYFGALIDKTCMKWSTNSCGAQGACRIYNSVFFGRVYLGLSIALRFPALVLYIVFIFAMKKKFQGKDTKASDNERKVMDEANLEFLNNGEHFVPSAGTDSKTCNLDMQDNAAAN
The following applies: chinese hamster, cho, 10 µM.

The target in data set [2] is T2, Solute carrier organic anion transporter family member 1B1 (Homo sapiens, UniProt Q9Y6L6).
T2 sequence (Q9Y6L6 whole entry): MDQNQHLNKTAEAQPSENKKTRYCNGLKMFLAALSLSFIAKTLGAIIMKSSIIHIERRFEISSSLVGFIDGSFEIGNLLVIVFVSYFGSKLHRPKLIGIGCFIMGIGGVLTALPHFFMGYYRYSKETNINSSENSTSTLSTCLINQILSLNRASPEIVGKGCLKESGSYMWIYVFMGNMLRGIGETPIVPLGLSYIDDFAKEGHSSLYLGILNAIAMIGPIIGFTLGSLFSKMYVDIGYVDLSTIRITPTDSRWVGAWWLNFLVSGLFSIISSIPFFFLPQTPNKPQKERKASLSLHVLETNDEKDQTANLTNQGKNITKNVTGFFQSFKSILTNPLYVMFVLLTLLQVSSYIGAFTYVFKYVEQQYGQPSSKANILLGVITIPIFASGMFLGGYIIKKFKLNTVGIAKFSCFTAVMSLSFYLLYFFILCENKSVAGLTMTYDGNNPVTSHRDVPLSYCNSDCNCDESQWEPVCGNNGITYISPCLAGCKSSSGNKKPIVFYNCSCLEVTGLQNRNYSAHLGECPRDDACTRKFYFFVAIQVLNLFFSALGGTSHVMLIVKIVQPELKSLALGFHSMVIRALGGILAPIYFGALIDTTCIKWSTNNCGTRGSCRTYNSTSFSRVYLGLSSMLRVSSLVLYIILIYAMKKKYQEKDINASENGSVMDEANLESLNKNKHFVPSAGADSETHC
As to conditions: chinese hamster, cho, 10 µM.

Each structure is given as a SMILES string.

For the compound `C[C@@H]1CC[C@@]2(OC1)O[C@H]1[C@@H](O)[C@H]3[C@@H]4CC[C@H]5C[C@@H](O[C@@H]6O[C@H](CO)[C@H](O[C@@H]7O[C@H](CO)C(O)[C@H](O[C@@H]8OC[C@@H](O)[C@H](O)[C@H]8O)[C@H]7O[C@@H]7O[C@H](CO)[C@H](O)[C@H](O[C@@H]8O[C@H](CO)[C@@H](O)[C@H](O)[C@H]8O)[C@H]7O)[C@H](O)[C@H]6O)[C@H](O)C[C@]5(C)[C@H]4CC[C@]3(C)[C@H]1[C@@H]2C` (stereo partly drawn) [DIGITONIN], the residual activity in data set [1] stood at 98.34%; in data set [2], 76.09%.
The matching figures for `C[C@H]1O[C@@H](O[C@H]2[C@@H](O)C[C@H](O[C@H]3[C@@H](O)C[C@H](O[C@H]4CC[C@@]5(C)[C@H](CC[C@@H]6[C@@H]5CC[C@]5(C)[C@@H](C7=CC(=O)OC7)CC[C@]65O)C4)O[C@@H]3C)O[C@@H]2C)C[C@H](O)[C@@H]1O` [DIGITOXIN]: 66.85% and 56.48%.
The like results for `CC(C)C1COc2cc3oc(=O)ccc3cc2O1` (stereo not drawn) [DIHYDRO-OBLIQUIN] were, in that order, 74.86% and 74.37%.
The matching figures for `COc1c(C(=O)O)ccc2c1CCC(C)(C)O2` [DIHYDRO-beta-TUBAIC ACID]: 102.8% and 98.02%.
For `C=C1CCC(=O)C(C)CCC2C1CC2(C)C` (stereo not drawn) [DIHYDROCARYOPHYLLEN-5-ONE], the residual activity in data set [1] is 39.09%; in data set [2] it was 24.21%.
The like results for `Cc1c(O)c(O)cc2c1CC=C1[C@@]2(C)CC[C@@]2(C)[C@@H]3C[C@](C)(C(=O)O)CC[C@]3(C)CC[C@]12C` [DIHYDROCELASTROL] were, in that order, 40.35% and 70.52%.
The like results for `CN1C[C@H](C(=O)N[C@]2(C)O[C@@]3(O)[C@@H]4CCCN4C(=O)[C@H](Cc4ccccc4)N3C2=O)C[C@@H]2c3cccc4[nH]cc(c34)C[C@H]21.CS(=O)(=O)O` [DIHYDROERGOTAMINE MESYLATE] were, in that order, 10.07% and 27.06%.
The matching figures for `COC(=O)C[C@H]1C(C)(C)[C@@H](OC(C)=O)[C@@H]2CC3C4CC(=O)O[C@@H](c5ccoc5)[C@]4(C)CCC3[C@@]1(C)C2=O` (stereo partly drawn) [DIHYDROFISSINOLIDE]: 77.17% and 71.88%.
Consider `CC(=O)O[C@@H]1C[C@H]2C(C)(C)C(=O)CC[C@]2(C)[C@H]2CC[C@@]3(C)[C@H](c4ccoc4)OC(=O)[C@H]4O[C@]43[C@@]21C` [DIHYDROGEDUNIN], for which the residual activity came out at 62.45% in data set [1] and 35.54% in data set [2].
The like results for `CCCCCC1C(=O)CCC1CC(=O)OC` (stereo not drawn) [DIHYDROJASMONIC ACID, METHYL ESTER] were, in that order, 82.72% and 109.5%.
The like results for `CCCCCC1C(=O)CCC1CC(=O)O` (stereo not drawn) [DIHYDROJASMONIC ACID] were, in that order, 102.5% and 113.7%.
The like results for `COc1c(CC(=O)c2cc3c(cc2O)OC(C)(C)C(O)C3)ccc2c1C=CC(C)(C)O2` (stereo not drawn) [DIHYDROMUNDULETONE] were, in that order, 58.7% and 30.26%.
With `Cc1cc(=O)c2c(O)c3c(cc2o1)OCC(C)CC3` (stereo not drawn) [DIHYDROPTAEROXYLIN], the residual activity in data set [1] amounted to 85.01%; in data set [2] it was 94.2%.
For the compound `COc1ccc(-c2c(O)c3c(OC)c4c(cc3oc2=O)OC(C)(C)CC4)cc1` [DIHYDROROBUSTIC ACID], the residual activity is listed as 70.94% in data set [1] and 73.61% in data set [2].
The matching figures for `COc1cc2c(cc1OC)[C@@H]1C(=O)c3ccc4c(c3O[C@@H]1CO2)CC(C(C)C)O4` (stereo partly drawn) [DIHYDROROTENONE]: 63.71% and 53.61%.
The matching figures for `CC(=O)O[C@@H]1c2c(ccc3ccc(=O)oc23)OC(C)(C)[C@@H]1OC(=O)CC(C)C` [DIHYDROSAMIDIN]: 104.1% and 75.05%.
The like results for `Cc1cc(=O)c2c(O)c3c(cc2o1)OC(C)(C)CC3` [DIHYDROSPATHELIACHROMENE] were, in that order, 116.8% and 127.1%.
Consider `CN[C@@H]1[C@H](O[C@H]2[C@H](O[C@H]3[C@H](O)[C@@H](O)[C@H](NC(=N)N)[C@@H](O)[C@@H]3NC(=N)N)O[C@@H](C)[C@]2(O)CO)O[C@@H](CO)[C@H](O)[C@H]1O.CN[C@@H]1[C@H](O[C@H]2[C@H](O[C@H]3[C@H](O)[C@@H](O)[C@H](NC(=N)N)[C@@H](O)[C@@H]3NC(=N)N)O[C@@H](C)[C@]2(O)CO)O[C@@H](CO)[C@H](O)[C@H]1O.O=S(=O)(O)O.O=S(=O)(O)O.O=S(=O)(O)O` [DIHYDROSTREPTOMYCIN SULFATE], for which the residual activity came to 99.04% in data set [1] and 78.79% in data set [2].
The matching figures for `Cc1cccc2c3c(ccc12)C1=C(C(=O)C3=O)[C@@H](C)CO1` [DIHYDROTANSHINONE I]: 129.1% and 111.4%.
The matching figures for `COc1ccc([C@@H]2Sc3ccccc3N(CCN(C)C)C(=O)[C@@H]2OC(C)=O)cc1.Cl` [DILTIAZEM HYDROCHLORIDE]: 80.81% and 26.71%.
The matching figures for `CNC(=O)CSP(=S)(OC)OC` [DIMETHOATE]: 114.1% and 106.9%.
As to `CS(C)(=O)=O` [DIMETHYL SULFONE], the results for the residual activity in data set [1] and in data set [2] were 102.7% and 115.1%, respectively.
The matching figures for `Cc1c(C(N)=O)cc([N+](=O)[O-])cc1[N+](=O)[O-]` [DINITOLMIDE]: 106.4% and 98.02%.
The like results for `COc1ccc(-c2cc(=O)c3c(O)cc(O[C@@H]4O[C@H](CO[C@@H]5O[C@@H](C)[C@H](O)[C@@H](O)[C@H]5O)[C@@H](O)[C@H](O)[C@H]4O)cc3o2)cc1O` [DIOSMIN] were, in that order, 93.34% and 67.13%.
The like results for `COc1c(Cl)c(C)c2c(c1Cl)OC(=O)c1c(C)c(Cl)c(OC)c(Cl)c1O2` [DIPLOICIN METHYL ETHER] were, in that order, 103.5% and 97.17%.
As to `CC(=O)Oc1ccccc1C(=O)Oc1ccccc1C(=O)O` [DIPLOSALSALATE], the values for the residual activity in data set [1] and in data set [2] were 93.37% and 91.69%, respectively.
The matching figures for `CC[C@H](C)[C@H](N)C(=O)N1CCC[C@H]1C(=O)N[C@H](C(=O)O)[C@@H](C)CC` [DIPROTIN A]: 116.8% and 108.3%.
The like results for `CC(=O)Oc1cccc(C(=O)O)c1OC(C)=O` [DIPYROCETYL] were, in that order, 102.1% and 115.7%.
The like results for `Cc1c(N(C)CS(=O)(=O)[O-])c(=O)n(-c2ccccc2)n1C.[Na+]` [DIPYRONE SODIUM] were, in that order, 89.51% and 72.95%.
Turning to `CC[C@H]1OC(=O)[C@H](C)[C@@H](O[C@H]2C[C@@](C)(OC)[C@@H](O)[C@H](C)O2)[C@H](C)[C@@H](O[C@@H]2O[C@H](C)C[C@H](N(C)C)[C@H]2O)[C@](C)(O)C[C@@H](C)[C@@H]2N[C@@H](COCCOC)O[C@H]([C@H]2C)[C@]1(C)O` [DIRITHROMYCIN], the residual activity came to 95.43% in data set [1] and 109.1% in data set [2].
The matching figures for `C[C@@H]1CC[C@@]2(OC1)O[C@H]1C[C@H]3[C@@H]4CC=C5C[C@@H](O)CC[C@]5(C)[C@H]4CC[C@]3(C)[C@H]1[C@@H]2C` [DISOGENIN]: 85.35% and 85.54%.
The like results for `CCOP(=S)(OCC)SCCSCC` [DISULFOTON] were, in that order, 105.1% and 113.3%.
The matching figures for `CC(CCc1ccc(O)cc1)NCCc1ccc(O)c(O)c1.Cl` (stereo not drawn) [DOBUTAMINE HYDROCHLORIDE]: 105.8% and 91.62%.
As for `Cl.NCCc1ccc(O)c(O)c1` [DOPAMINE HYDROCHLORIDE], the residual activity in data set [1] is given as 73.49%; in data set [2], 66.46%.
